ChEMBL document CHEMBL5058645, “Data for DCP probe JNJ-6204” (2022)

Legend:
[1] = molecular target: Dual specificity protein kinase CLK4 (Homo sapiens) (UniProt Q9HAZ1); assay: CLK4(h) Kinase panel; settings: Compound concentration 1.0 uM, tested as the 2H-labelled form
[2] = molecular target: Bone morphogenetic protein receptor type-1B (Homo sapiens) (UniProt O00238); assay: ALK6(h) Kinase panel; settings: Compound concentration 1.0 uM, tested as the 2H-labelled form
[3] = molecular target: Serine/threonine-protein kinase Nek2 (Homo sapiens) (UniProt P51955); assay: NEK2(h) Kinase panel; settings: Compound concentration 1.0 uM, tested as the 2H-labelled form
Chain of Serine/threonine-protein kinase Nek2 (Homo sapiens) (P51955 whole entry): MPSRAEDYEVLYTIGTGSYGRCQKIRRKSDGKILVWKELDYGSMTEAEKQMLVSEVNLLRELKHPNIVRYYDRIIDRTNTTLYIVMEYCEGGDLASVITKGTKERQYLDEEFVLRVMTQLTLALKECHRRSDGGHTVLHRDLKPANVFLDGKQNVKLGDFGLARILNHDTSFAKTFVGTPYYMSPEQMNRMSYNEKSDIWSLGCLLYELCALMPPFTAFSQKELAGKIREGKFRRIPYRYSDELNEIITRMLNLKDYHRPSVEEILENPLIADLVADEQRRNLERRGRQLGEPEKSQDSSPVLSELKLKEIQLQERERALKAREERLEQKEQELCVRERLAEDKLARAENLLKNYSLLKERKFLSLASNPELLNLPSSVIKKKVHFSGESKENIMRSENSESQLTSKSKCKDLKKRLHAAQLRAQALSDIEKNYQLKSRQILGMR

[4] = molecular target: Serine/threonine-protein kinase TAO3 (Homo sapiens) (UniProt Q9H2K8); assay: TAO3(h) Kinase panel; settings: Compound concentration 1.0 uM, tested as the 2H-labelled form
[5] = molecular target: Tyrosine-protein kinase Fer (Homo sapiens) (UniProt P16591); assay: Fer(h) Kinase panel; settings: Compound concentration 1.0 uM, tested as the 2H-labelled form
[6] = molecular target: Phosphatidylinositol 3-kinase C2 domain-containing subunit gamma (Homo sapiens) (UniProt O75747); assay: PI3KC2g(h) Kinase panel; settings: Compound concentration 1.0 uM, tested as the 2H-labelled form
[7] = molecular target: Serine/threonine-protein kinase PLK3 (Homo sapiens) (UniProt Q9H4B4); assay: Plk3(h) Kinase panel; settings: Compound concentration 1.0 uM, tested as the 2H-labelled form
[8] = molecular target: Casein kinase II subunit alpha' (Homo sapiens) (UniProt P19784); assay: CK2alpha2(h) Kinase panel; settings: Compound concentration 1.0 uM, tested as the 2H-labelled form
[9] = molecular target: cAMP-dependent protein kinase catalytic subunit PRKX (Homo sapiens) (UniProt P51817); assay: PrKX(h) Kinase panel; settings: Compound concentration 1.0 uM, tested as the 2H-labelled form
[10] = molecular target: Insulin receptor-related protein (Homo sapiens) (UniProt P14616); assay: IRR(h) Kinase panel; settings: Compound concentration 1.0 uM, tested as the 2H-labelled form
[11] = molecular target: Serine/threonine-protein kinase pim-3 (Homo sapiens) (UniProt Q86V86); assay: Pim-3(h) Kinase panel; settings: Compound concentration 1.0 uM, tested as the 2H-labelled form
[12] = molecular target: Receptor-interacting serine/threonine-protein kinase 2 (Homo sapiens) (UniProt O43353); assay: RIPK2(h) Kinase panel; settings: Compound concentration 1.0 uM, tested as the 2H-labelled form
[13] = molecular target: Testis-specific serine/threonine-protein kinase 4 (Homo sapiens) (UniProt Q6SA08); assay: TSSK4(h) Kinase panel; settings: Compound concentration 1.0 uM, tested as the 2H-labelled form
[14] = molecular target: Calcium/calmodulin-dependent protein kinase type II subunit beta (Homo sapiens) (UniProt Q13554); assay: CaMKIIbeta(h) Kinase panel; settings: Compound concentration 1.0 uM, tested as the 2H-labelled form
[15] = molecular target: Serine/threonine-protein kinase 26 (Homo sapiens) (UniProt Q9P289); assay: MST4(h) Kinase panel; settings: Compound concentration 1.0 uM, tested as the 2H-labelled form
[16] = molecular target: Tyrosine-protein kinase SYK (Homo sapiens) (UniProt P43405); assay: Syk(h) Kinase panel; settings: Compound concentration 1.0 uM, tested as the 2H-labelled form
[17] = molecular target: RAC-beta serine/threonine-protein kinase (Homo sapiens) (UniProt P31751); assay: PKBbeta (h) Kinase panel; settings: Compound concentration 1.0 uM, tested as the 2H-labelled form
[18] = molecular target: Mitogen-activated protein kinase kinase kinase 10 (Homo sapiens) (UniProt Q02779); assay: MLK2(h) Kinase panel; settings: Compound concentration 1.0 uM, tested as the 2H-labelled form
[19] = molecular target: Kappa-type opioid receptor (Homo sapiens) (UniProt P41145); settings: Compound concentration 10.0 uM, tested as the 2H-labelled form
Chain of Kappa-type opioid receptor (Homo sapiens) (P41145 whole entry): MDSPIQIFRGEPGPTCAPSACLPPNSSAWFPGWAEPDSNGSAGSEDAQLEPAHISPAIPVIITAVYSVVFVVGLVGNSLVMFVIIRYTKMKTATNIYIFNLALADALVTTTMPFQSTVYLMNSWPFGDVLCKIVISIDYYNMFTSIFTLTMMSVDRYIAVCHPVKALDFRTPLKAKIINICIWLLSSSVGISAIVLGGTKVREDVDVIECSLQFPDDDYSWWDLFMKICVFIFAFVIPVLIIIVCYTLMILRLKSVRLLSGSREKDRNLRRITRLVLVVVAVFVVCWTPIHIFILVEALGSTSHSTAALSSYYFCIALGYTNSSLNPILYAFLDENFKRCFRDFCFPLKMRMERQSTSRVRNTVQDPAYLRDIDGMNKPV

[20] = molecular target: Tyrosine-protein kinase Fgr (Homo sapiens) (UniProt P09769); assay: Fgr(h) Kinase panel; settings: Compound concentration 1.0 uM, tested as the 2H-labelled form
[21] = molecular target: Serine/threonine-protein kinase MRCK alpha (Homo sapiens) (UniProt Q5VT25); assay: MRCKalpha(h) Kinase panel; settings: Compound concentration 1.0 uM, tested as the 2H-labelled form
[22] = molecular target: Cyclin-dependent kinase-like 2 (Homo sapiens) (UniProt Q92772); assay: CDKL2(h) Kinase panel; settings: Compound concentration 1.0 uM, tested as the 2H-labelled form
[23] = molecular target: Serine/threonine-protein kinase B-raf (Homo sapiens) (UniProt P15056); assay: B-Raf(h) Kinase panel; settings: Compound concentration 1.0 uM, tested as the 2H-labelled form
[24] = molecular target: 5-hydroxytryptamine receptor 1A (Homo sapiens) (UniProt P08908); settings: Compound concentration 10.0 uM, tested as the 2H-labelled form
[25] = molecular target: Aurora kinase A (Homo sapiens) (UniProt O14965); assay: Aurora-A(h) Kinase panel; settings: Compound concentration 1.0 uM, tested as the 2H-labelled form
[26] = molecular target: Alpha-1B adrenergic receptor (Homo sapiens) (UniProt P35368); settings: Compound concentration 10.0 uM, tested as the 2H-labelled form
Chain of Alpha-1B adrenergic receptor (Homo sapiens) (P35368 whole entry): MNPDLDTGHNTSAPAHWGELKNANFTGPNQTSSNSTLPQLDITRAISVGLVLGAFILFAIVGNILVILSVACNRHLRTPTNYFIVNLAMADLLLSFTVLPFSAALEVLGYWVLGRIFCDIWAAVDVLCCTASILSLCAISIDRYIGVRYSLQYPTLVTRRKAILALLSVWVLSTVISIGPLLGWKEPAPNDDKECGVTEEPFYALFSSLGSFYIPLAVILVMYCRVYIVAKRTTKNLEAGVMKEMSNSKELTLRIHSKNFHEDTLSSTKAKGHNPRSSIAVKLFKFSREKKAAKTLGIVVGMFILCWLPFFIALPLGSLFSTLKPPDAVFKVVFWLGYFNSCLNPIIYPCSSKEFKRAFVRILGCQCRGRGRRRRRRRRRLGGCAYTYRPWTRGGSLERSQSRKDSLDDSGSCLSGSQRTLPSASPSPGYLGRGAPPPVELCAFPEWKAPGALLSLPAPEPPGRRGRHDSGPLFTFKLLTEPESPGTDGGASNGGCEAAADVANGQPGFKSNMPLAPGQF

[27] = molecular target: Tyrosine-protein kinase TXK (Homo sapiens) (UniProt P42681); assay: Txk(h) Kinase panel; settings: Compound concentration 1.0 uM, tested as the 2H-labelled form
[28] = molecular target: Dual specificity protein kinase CLK2 (Homo sapiens) (UniProt P49760); assay: CLK2(h) Kinase panel; settings: Compound concentration 1.0 uM, tested as the 2H-labelled form
Chain of Dual specificity protein kinase CLK2 (Homo sapiens) (P49760 whole entry, looked up): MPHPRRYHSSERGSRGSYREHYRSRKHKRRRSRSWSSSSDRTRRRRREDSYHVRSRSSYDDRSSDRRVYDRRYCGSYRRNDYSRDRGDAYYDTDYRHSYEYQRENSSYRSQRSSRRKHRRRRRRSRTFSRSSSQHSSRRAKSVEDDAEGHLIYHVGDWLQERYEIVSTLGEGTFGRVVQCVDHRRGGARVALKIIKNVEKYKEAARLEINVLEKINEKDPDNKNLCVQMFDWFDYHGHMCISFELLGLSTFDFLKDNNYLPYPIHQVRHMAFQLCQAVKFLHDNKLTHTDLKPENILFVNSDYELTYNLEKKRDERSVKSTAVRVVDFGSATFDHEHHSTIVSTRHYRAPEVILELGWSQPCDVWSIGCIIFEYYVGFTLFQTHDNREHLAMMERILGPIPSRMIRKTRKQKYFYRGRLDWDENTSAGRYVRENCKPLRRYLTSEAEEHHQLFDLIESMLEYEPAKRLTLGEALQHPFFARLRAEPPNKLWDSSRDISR

[29] = molecular target: Sodium-dependent dopamine transporter (Homo sapiens, UniProt Q01959); settings: Compound concentration 10.0 uM, tested as the 2H-labelled form
Chain of Sodium-dependent dopamine transporter (Q01959 whole entry): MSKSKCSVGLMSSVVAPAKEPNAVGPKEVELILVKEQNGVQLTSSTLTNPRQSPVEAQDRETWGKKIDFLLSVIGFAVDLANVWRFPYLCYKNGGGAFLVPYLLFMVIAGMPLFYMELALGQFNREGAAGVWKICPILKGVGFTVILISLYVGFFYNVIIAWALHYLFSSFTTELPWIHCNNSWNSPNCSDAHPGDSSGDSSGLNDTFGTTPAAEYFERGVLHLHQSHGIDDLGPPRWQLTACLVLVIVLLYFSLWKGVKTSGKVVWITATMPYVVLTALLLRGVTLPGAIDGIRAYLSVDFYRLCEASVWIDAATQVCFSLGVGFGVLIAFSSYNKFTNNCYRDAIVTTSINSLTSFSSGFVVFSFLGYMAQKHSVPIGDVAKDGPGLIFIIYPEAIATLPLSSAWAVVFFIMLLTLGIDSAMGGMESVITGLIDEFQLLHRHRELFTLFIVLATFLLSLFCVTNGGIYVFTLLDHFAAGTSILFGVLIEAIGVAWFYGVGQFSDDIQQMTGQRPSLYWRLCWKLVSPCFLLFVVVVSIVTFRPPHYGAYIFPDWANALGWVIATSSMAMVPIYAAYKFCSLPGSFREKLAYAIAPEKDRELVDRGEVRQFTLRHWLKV

[30] = molecular target: Serine/threonine-protein kinase Nek1 (Homo sapiens) (UniProt Q96PY6); assay: NEK1(h) Kinase panel; settings: Compound concentration 1.0 uM, tested as the 2H-labelled form
[31] = molecular target: Cyclin-dependent kinase 17 (Homo sapiens) (UniProt Q00537); assay: CDK17/cyclinY(h) Kinase panel; settings: Compound concentration 1.0 uM, tested as the 2H-labelled form
[32] = molecular target: Proto-oncogene tyrosine-protein kinase Src (Homo sapiens) (UniProt P12931); assay: cSRC(h) Kinase panel; settings: Compound concentration 1.0 uM, tested as the 2H-labelled form
[33] = molecular target: Aurora kinase C (Homo sapiens) (UniProt Q9UQB9); assay: Aurora-C(h) Kinase panel; settings: Compound concentration 1.0 uM, tested as the 2H-labelled form
[34] = molecular target: Tyrosine-protein kinase Lck (Homo sapiens) (UniProt P06239); assay: Lck(h) activated Kinase panel; settings: Compound concentration 1.0 uM, tested as the 2H-labelled form
Chain of Tyrosine-protein kinase Lck (Homo sapiens) (P06239 2-509 limits assumed): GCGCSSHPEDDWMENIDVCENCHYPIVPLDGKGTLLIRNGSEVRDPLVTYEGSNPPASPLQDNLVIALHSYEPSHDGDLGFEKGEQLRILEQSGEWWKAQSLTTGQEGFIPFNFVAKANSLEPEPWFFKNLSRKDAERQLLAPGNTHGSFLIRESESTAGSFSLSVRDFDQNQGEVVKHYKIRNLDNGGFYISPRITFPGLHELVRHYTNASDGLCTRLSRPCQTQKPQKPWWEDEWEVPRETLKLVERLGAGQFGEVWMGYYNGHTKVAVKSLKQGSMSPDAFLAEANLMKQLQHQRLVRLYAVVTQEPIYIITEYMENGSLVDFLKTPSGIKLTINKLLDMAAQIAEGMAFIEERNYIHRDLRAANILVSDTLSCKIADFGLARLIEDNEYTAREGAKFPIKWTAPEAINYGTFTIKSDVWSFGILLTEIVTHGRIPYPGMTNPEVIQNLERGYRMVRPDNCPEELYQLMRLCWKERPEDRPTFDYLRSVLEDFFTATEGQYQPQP

[35] = molecular target: 5-hydroxytryptamine receptor 6 (Homo sapiens) (UniProt P50406); settings: Compound concentration 10.0 uM, tested as the 2H-labelled form
[36] = molecular target: Cyclin-dependent kinase 18 (Homo sapiens) (UniProt Q07002); assay: CDK18/cyclinY(h) Kinase panel; settings: Compound concentration 1.0 uM, tested as the 2H-labelled form
[37] = molecular target: Myosin-IIIb (Homo sapiens) (UniProt Q8WXR4); assay: MYO3B(h) Kinase panel; settings: Compound concentration 1.0 uM, tested as the 2H-labelled form
[38] = molecular target: 5'-AMP-activated protein kinase catalytic subunit alpha-1 (Homo sapiens) (UniProt Q13131); assay: AMPKalpha1(h) Kinase panel; settings: Compound concentration 1.0 uM, tested as the 2H-labelled form
[39] = molecular target: D(2) dopamine receptor (Homo sapiens) (UniProt P14416); settings: Compound concentration 10.0 uM, tested as the 2H-labelled form
Chain of D(2) dopamine receptor (Homo sapiens) (P14416 whole entry): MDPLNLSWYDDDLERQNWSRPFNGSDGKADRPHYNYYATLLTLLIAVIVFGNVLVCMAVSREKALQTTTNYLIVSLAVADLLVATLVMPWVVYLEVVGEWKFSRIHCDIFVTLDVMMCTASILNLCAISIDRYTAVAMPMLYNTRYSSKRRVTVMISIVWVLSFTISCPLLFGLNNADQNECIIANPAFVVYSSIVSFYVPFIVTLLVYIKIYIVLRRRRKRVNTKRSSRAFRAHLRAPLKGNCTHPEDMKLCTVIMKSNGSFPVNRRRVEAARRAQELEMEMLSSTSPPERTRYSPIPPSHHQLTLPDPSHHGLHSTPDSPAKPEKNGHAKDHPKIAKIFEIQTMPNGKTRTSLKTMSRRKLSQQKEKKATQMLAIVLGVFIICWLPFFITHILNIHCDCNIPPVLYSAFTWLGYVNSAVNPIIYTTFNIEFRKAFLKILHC

[40] = molecular target: Histamine H4 receptor (Homo sapiens) (UniProt Q9H3N8); settings: Compound concentration 10.0 uM, tested as the 2H-labelled form
[41] = molecular target: Angiopoietin-1 receptor (Homo sapiens) (UniProt Q02763); assay: Tie2 (h) Kinase panel; settings: Compound concentration 1.0 uM, tested as the 2H-labelled form
[42] = molecular target: Alpha-1D adrenergic receptor (Homo sapiens) (UniProt P25100); settings: Compound concentration 10.0 uM, tested as the 2H-labelled form
Chain of Alpha-1D adrenergic receptor (Homo sapiens) (P25100 whole entry): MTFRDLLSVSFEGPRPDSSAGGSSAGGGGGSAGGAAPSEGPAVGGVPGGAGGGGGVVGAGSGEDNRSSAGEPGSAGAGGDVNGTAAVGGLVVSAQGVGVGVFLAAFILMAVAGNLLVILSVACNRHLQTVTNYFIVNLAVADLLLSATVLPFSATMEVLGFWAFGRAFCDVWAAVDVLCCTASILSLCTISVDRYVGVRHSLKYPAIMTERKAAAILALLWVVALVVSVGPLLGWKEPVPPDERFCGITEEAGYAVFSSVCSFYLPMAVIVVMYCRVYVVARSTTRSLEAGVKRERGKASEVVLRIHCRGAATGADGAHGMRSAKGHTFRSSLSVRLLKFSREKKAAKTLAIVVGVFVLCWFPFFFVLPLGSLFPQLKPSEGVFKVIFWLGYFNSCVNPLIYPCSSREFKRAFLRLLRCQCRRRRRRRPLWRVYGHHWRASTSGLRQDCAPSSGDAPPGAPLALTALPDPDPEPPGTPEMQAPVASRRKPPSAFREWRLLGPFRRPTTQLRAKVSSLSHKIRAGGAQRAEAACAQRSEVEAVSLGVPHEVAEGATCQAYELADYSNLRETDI

[43] = molecular target: Protein kinase C epsilon type (Homo sapiens) (UniProt Q02156); assay: PKCepsilon (h) Kinase panel; settings: Compound concentration 1.0 uM, tested as the 2H-labelled form
[44] = molecular target: Serine/threonine-protein kinase MARK2 (Homo sapiens) (UniProt Q7KZI7); assay: PAR-1Balpha(h) Kinase panel; settings: Compound concentration 1.0 uM, tested as the 2H-labelled form
[45] = molecular target: Serine/threonine-protein kinase BRSK1 (Homo sapiens) (UniProt Q8TDC3); assay: BrSK1(h) Kinase panel; settings: Compound concentration 1.0 uM, tested as the 2H-labelled form
Chain of Serine/threonine-protein kinase BRSK1 (Homo sapiens) (Q8TDC3 whole entry): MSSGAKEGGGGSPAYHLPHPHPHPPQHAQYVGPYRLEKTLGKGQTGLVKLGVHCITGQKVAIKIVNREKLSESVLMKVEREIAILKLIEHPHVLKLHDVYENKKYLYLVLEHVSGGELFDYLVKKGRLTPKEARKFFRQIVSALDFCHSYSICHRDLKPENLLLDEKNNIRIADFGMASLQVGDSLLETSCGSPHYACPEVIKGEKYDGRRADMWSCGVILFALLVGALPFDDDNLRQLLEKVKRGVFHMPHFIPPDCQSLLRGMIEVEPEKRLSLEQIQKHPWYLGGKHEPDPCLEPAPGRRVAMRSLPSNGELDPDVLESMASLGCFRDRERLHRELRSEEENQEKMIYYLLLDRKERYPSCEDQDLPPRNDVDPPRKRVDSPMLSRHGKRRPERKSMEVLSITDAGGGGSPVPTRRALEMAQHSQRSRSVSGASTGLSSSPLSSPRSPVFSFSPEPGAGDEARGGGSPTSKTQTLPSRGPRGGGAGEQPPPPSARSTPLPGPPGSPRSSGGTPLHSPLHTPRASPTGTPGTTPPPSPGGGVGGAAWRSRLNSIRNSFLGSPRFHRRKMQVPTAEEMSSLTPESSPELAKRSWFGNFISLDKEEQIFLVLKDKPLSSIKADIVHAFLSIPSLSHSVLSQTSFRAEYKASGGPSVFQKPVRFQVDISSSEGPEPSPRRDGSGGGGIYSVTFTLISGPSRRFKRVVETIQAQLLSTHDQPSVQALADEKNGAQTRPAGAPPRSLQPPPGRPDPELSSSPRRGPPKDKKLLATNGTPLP

[46] = molecular target: Serine/threonine-protein kinase D3 (Homo sapiens) (UniProt O94806); assay: PKD3(h) Kinase panel; settings: Compound concentration 1.0 uM, tested as the 2H-labelled form

Measured: inhibition

CC1(C)Cn2nc(-c3ccc(F)cn3)c(-c3ccnc4[nH]ncc34)c2CO1
inactive: [1] 15% | [2] -5% | [3] 6% | [4] 5% | [5] 20% | [6] -4% | [7] -7% | [8] 4% | [9] 0% | [10] -4% | [11] 4% | [12] 2% | [13] 5% | [14] 18% | [15] 6% | [16] -8% | [17] 0% | [18] 8% | [19] 12% | [20] 7% | [21] 6% | [22] 0% | [23] 16% | [24] 1.3% | [25] -6% | [26] 1.82% | [27] 16% | [28] 14% | [29] 43.8% | [30] 5% | [31] 6% | [32] 15% | [33] 7% | [34] -10% | [35] -1.55% | [36] 4% | [37] 12% | [38] 0% | [39] 4.12% | [40] 24.7% | [41] 1% | [42] 8.27% | [43] -5% | [44] 15% | [45] 13% | [46] 17%
